Consider 5 compounds from ChEMBL document CHEMBL1140490, “Design and synthesis via click chemistry of 8,9-anhydroerythromycin A 6,9-hemiketal analogues with anti-MRSA and -VRE activity” (2007).

Experiment [1] relates to Staphylococcus aureus. In words: Antimicrobial activity against methicillin-resistant Staphylococcus aureus N315 IR94-HR-1 by serial dilution method. The format is functional.
The test system of a further experiment is Enterococcus faecalis. In words: Antimicrobial activity against vancomycin-resistant Enterococcus faecalis NCTC-12201 by serial dilution method. It is filed as functional.
Experiment [2] relates to Staphylococcus aureus. In words: Antimicrobial activity against methicillin-resistant Staphylococcus aureus 70 by serial dilution method. The format is functional.
Another experiment has as its system Enterococcus faecium. In words: Antimicrobial activity against vancomycin-resistant Enterococcus faecium NCTC-12203 by serial dilution method.
Experiment [3] concerns Staphylococcus aureus. In words: (§1) Antimicrobial activity against Staphylococcus aureus 8325 by serial dilution method. It is filed as functional.
For experiment [4], the system named is Staphylococcus aureus. In words: Antimicrobial activity against Staphylococcus aureus Smith by serial dilution method. It is filed as functional.
Experiment [5] concerns Staphylococcus aureus. In words: Antimicrobial activity against Staphylococcus aureus ISP447 by serial dilution method. The format is functional.
The test system of experiment [6] is Staphylococcus aureus. Description: Antimicrobial activity against Staphylococcus aureus FDA209P by serial dilution method. The format is functional.
Experiment [7] deals with Staphylococcus aureus. In words: Antimicrobial activity against methicillin-resistant Staphylococcus aureus N315 IR94 by serial dilution method. It is filed as functional.
Another experiment concerns Escherichia coli. Description: Antimicrobial activity against Escherichia coli NIHJ JC-2 by serial dilution method. The format is functional.
The subject of experiment [8] is Staphylococcus aureus. Description: Antimicrobial activity against methicillin-resistant Staphylococcus aureus 92-1191 by serial dilution method. It is filed as functional.
Experiment [9] deals with Staphylococcus aureus. Description: Antimicrobial activity against Staphylococcus aureus ISP217 by serial dilution method. The format is functional.
Experiment [10] relates to Staphylococcus aureus. The experiment is described as §1. The format is functional. This is another data set of the same source.

Structures are written as SMILES. Converted amounts (≈) assume the structure as drawn. Some results are limits rather than exact numbers.

Consider `CC[C@H]1OC(=O)[C@H](C)[C@@H](OCc2cn(CSc3ccccc3)nn2)[C@H](C)[C@@H](O[C@@H]2O[C@H](C)C[C@H](N(C)C)[C@H]2O)[C@@]2(C)CC(C)=C(O2)[C@H](C)[C@@H](OC(=O)C(C)C)[C@]1(C)OC(=O)C(C)C`, for which the MIC against Staphylococcus aureus [1] was determined as 8 µg/mL (≈ 8.88 µM); in the experiment on Enterococcus faecalis it was 16 µg/mL (≈ 17.8 µM); in the experiment with Staphylococcus aureus [2], 16 µg/mL (≈ 17.8 µM); in the experiment on Enterococcus faecium, 16 µg/mL (≈ 17.8 µM); in the experiment with Staphylococcus aureus [3] it was 16 µg/mL (≈ 17.8 µM); with Staphylococcus aureus [4], 32 µg/mL (≈ 35.5 µM). Further, the MIC against Staphylococcus aureus [5] was 16 µg/mL (≈ 17.8 µM); against Staphylococcus aureus [6], 16 µg/mL (≈ 17.8 µM); in the experiment with Staphylococcus aureus [7], 8 µg/mL (≈ 8.88 µM); with Escherichia coli, > 128 µg/mL; with Staphylococcus aureus [8] it was 16 µg/mL (≈ 17.8 µM); against Staphylococcus aureus [9], 16 µg/mL (≈ 17.8 µM). Also, in the experiment with Staphylococcus aureus [10], the MIC was found to be 16 µg/mL (≈ 17.8 µM).

Take `CC[C@H]1OC(=O)[C@H](C)[C@@H](OCc2cn(-c3cccc4ccccc34)nn2)[C@H](C)[C@@H](O[C@@H]2O[C@H](C)C[C@H](N(C)C)[C@H]2O)[C@@]2(C)CC(C)=C(O2)[C@H](C)[C@@H](OC(=O)C(C)C)[C@]1(C)OC(=O)C(C)C`: the minimum inhibitory concentration (MIC) in the experiment with Staphylococcus aureus [1] was 16 µg/mL (≈ 17.7 µM); with Enterococcus faecalis it was 32 µg/mL (≈ 35.4 µM); against Staphylococcus aureus [2] it was 16 µg/mL (≈ 17.7 µM); against Enterococcus faecium it was 16 µg/mL (≈ 17.7 µM); with Staphylococcus aureus [3] it was 64 µg/mL (≈ 70.7 µM); in the experiment on Staphylococcus aureus [4] it was 64 µg/mL (≈ 70.7 µM). For the same compound, the MIC is 32 µg/mL (≈ 35.4 µM) against Staphylococcus aureus [5]; 32 µg/mL (≈ 35.4 µM) in the experiment with Staphylococcus aureus [6]; 16 µg/mL (≈ 17.7 µM) with Staphylococcus aureus [7]; > 128 µg/mL against Escherichia coli; 32 µg/mL (≈ 35.4 µM) with Staphylococcus aureus [8]; 16 µg/mL (≈ 17.7 µM) against Staphylococcus aureus [9]. Also, in the experiment with Staphylococcus aureus [10], 16 µg/mL (≈ 17.7 µM) was the least that counted as inhibitory (MIC).

Turning to `CC[C@H]1OC(=O)[C@H](C)[C@@H](OCc2cn(CC(=O)O)nn2)[C@H](C)[C@@H](O[C@@H]2O[C@H](C)C[C@H](N(C)C)[C@H]2O)[C@@]2(C)CC(C)=C(O2)[C@H](C)[C@@H](OC(=O)C(C)C)[C@]1(C)OC(=O)C(C)C`, the minimum inhibitory concentration (MIC) with Enterococcus faecalis, with Enterococcus faecium, in the experiment on Staphylococcus aureus [3], against Staphylococcus aureus [4], against Staphylococcus aureus [5] and against Staphylococcus aureus [6] was > 128 µg/mL in each case. The minimal inhibitory concentration (MIC) with Escherichia coli, against Staphylococcus aureus [9] and with Staphylococcus aureus [10] was > 128 µg/mL in each case.

For the compound `CC[C@H]1OC(=O)[C@H](C)[C@@H](O[C@H]2C[C@@](C)(OC)[C@@H](OC=O)[C@H](C)O2)[C@H](C)[C@@H](O[C@@H]2O[C@H](C)C[C@H](N(C)C)[C@H]2OC(C)=O)[C@@]2(C)CC(C)=C(O2)[C@H](C)[C@@H](OC(=O)C(C)C)[C@]1(C)OC(=O)C(C)C`, the minimum inhibitory concentration (MIC) in the experiment with Staphylococcus aureus [1] is 16 µg/mL (≈ 17.3 µM); in the experiment with Enterococcus faecalis it was 32 µg/mL (≈ 34.6 µM); in the experiment on Staphylococcus aureus [2], 16 µg/mL (≈ 17.3 µM); in the experiment with Enterococcus faecium, 32 µg/mL (≈ 34.6 µM); against Staphylococcus aureus [3] it was 32 µg/mL (≈ 34.6 µM); against Staphylococcus aureus [4], 16 µg/mL (≈ 17.3 µM). The MIC against Staphylococcus aureus [5] was 16 µg/mL (≈ 17.3 µM); with Staphylococcus aureus [6], 16 µg/mL (≈ 17.3 µM); in the experiment on Staphylococcus aureus [7], 16 µg/mL (≈ 17.3 µM); with Escherichia coli it was > 128 µg/mL; in the experiment with Staphylococcus aureus [9], 16 µg/mL (≈ 17.3 µM); in the experiment on Staphylococcus aureus [10], 16 µg/mL (≈ 17.3 µM).

Turning to `CC[C@H]1OC(=O)[C@H](C)[C@@H](O[C@H]2C[C@@](C)(OC)[C@@H](O)[C@H](C)O2)[C@H](C)[C@@H](O[C@@H]2O[C@H](C)C[C@H](N(C)C)[C@H]2O)[C@](C)(O)C[C@@H](C)C(=O)[C@H](C)[C@@H](O)[C@]1(C)O` [ERYTHROMYCIN], the minimum inhibitory concentration (MIC) was > 256 µg/mL with Enterococcus faecalis; > 256 µg/mL in the experiment with Enterococcus faecium; 64 µg/mL (≈ 87.2 µM) in the experiment on Staphylococcus aureus [3]; ≤ 0.5 µg/mL in the experiment with Staphylococcus aureus [4]; > 256 µg/mL in the experiment on Staphylococcus aureus [5]; ≤ 0.5 µg/mL against Staphylococcus aureus [6]. The MIC was > 256 µg/mL with Escherichia coli, > 128 µg/mL in the experiment on Staphylococcus aureus [8], > 256 µg/mL with Staphylococcus aureus [9] and > 256 µg/mL in the experiment with Staphylococcus aureus [10].

Broadly, the MIC is the least concentration at which growth counts as inhibited. A lower MIC goes with a more susceptible organism.
